Key:
Type in all cases: in vivo
peripheral serotonin = experiment: Peripheral serotonin levels in wild-type mice (Example 11); details: 5 mice per compound
Procedure: Serotonin serum levels were quantified using immunoassay kits from Fitzgerald (Serotonin) and serotonin levels in the different regions of the brain were quantified by HPLC method as described previously (Mann et al., 1992, Arch. Gen. Psychiatry 49:442-446).
The following three compounds were tested for their ability to effect peripheral serotonin levels in wild-type mice:
Also tested as a negative control was vehicle alone. Each compound as well as vehicle was administered to 5 mice and the resulting peripheral serotonin levels were as follows: […]

serum serotonin [1] = experiment: Serum serotonin levels in WT mice fed LP-533,401 (dose response)
Procedure: This decrease in serum serotonin levels reached 70% of control values when using 250 mg/kg of the compound while no change in brain serotonin content was observed (FIG. 15). […] Ovariectomized rodents present, as post-menopausal women do (Rodan & Martin, 2000, Science 289:1508-1514), a marked increase in bone resorption not compensated by a similar increase in bone formation.
(§1) Blood samples were collected from mice and rats through cardiac puncture under isoflurane anesthesia, kept on ice for 5 min, and centrifuged at 13,000 rpm for 10 min at 4° C. Serum samples were stored at −80° C. until hormonal analyses were performed. Serum serotonin levels were quantified by ELISA (Serotonin kit, Fitzgerald) while serotonin levels in brain regions were quantified by HPLC as described previously (Mann et al., 1992, Arch. Gen. Psychiatry 49:442-446). Serum levels of total deoxypyridinoline (DPD) cross-links was measured using the Merta tDPD kit (Quidel corp. Sandiago, Calif.) and Osteocalcin using Rat and Mouse Ocn IRMA kit.

ovariectomized mice [2] = experiment: Bone histomorphometry in ovariectomized mice, preventive and curative regimen
Procedure: Six-week-old wild-type virgin female mice were purchased from the Jackson Laboratories and subjected to either bilateral ovariectomy or a sham operation after a few days of acclimatization to the animal facility post-arrival. Ovariectomy was performed under isofluorane anesthesia through dorsal, subrenal incision. In the first experiment, mice were treated from day 1 post-ovariectomy for 4 weeks with LP-533,401 (1, 10, 100 or 250 mg/kg/day) or vehicle. In the second experiment, mice were treated for 4 weeks from 2 to 6-weeks post-ovariectomy with LP-533,401 (250 mg/kg/day) or vehicle. […] LP-533,401 was dissolved in polyethylene glycol:5% dextrose (40:60) and given daily by gavage at the doses indicated. Animals were observed daily for any behavioral abnormalities. Mice were sacrificed at the end of the experimental regimen and processed for the skeletal and physiological analysis.
(§2) Bone histomorphometry was performed as previously described (Duey et al., 2000, Cell 100:197-207; Takeda et al., 2002, Cell 111:305-317; Parfitt et al., 1987, J. Bone Miner. Res. 2:595-610). Briefly, lumbar vertebrae were dissected, fixed for 24 hr in 10% formalin, dehydrated in graded ethanol series, and embedded in methyl methacrylate resin according to standard protocols (Parfitt et al., 1987, J. Bone Miner. Res. 2:595-610). Von Kossa/Von Gieson staining was performed using 7 μm sections for bone volume over tissue volume (BV/TV) measurement. Bone formation rate (BFR) was analyzed by the calcein double-labeling method (Ducy et al., 2000, Cell 100:197-207). Calcein (Sigma Chemical Co., St. Louis, Mo.) was dissolved in calcein buffer (0.15 M NaCl, 2% NaHCO3) and injected twice at 0.125 mg/g body weight on day 1 and 4, and then mice were killed on day 6. Unstained 4 μm sections were used for bone formation rate (BFR) measurements. For the analysis of parameters of osteoblasts and osteoclasts, 4 μm sections were stained with toluidine blue and tartrate-resistant acid phosphatase (TRAP), respectively (2). Histomorphometric analyses were performed using the Osteomeasure Analysis System (Osteometrics, Atlanta, Ga.).
as §1

serum serotonin [3] = experiment: Serum serotonin levels in ovariectomized mice; details: OVX mice
Procedure: (§3) Six-week-old wild-type virgin female mice were purchased from the Jackson Laboratories and subjected to either bilateral ovariectomy or a sham operation after a few days of acclimatization to the animal facility post-arrival. Ovariectomy was performed under isofluorane anesthesia through dorsal, subrenal incision. In the first experiment, mice were treated from day 1 post-ovariectomy for 4 weeks with LP-533,401 (1, 10, 100 or 250 mg/kg/day) or vehicle. In the second experiment, mice were treated for 4 weeks from 2 to 6-weeks post-ovariectomy with LP-533,401 (250 mg/kg/day) or vehicle. In the third set of experiments, mice were treated for 6 weeks from 6 to 12-weeks post-ovariectomy with LP-533,401 (250 mg/kg/day) or vehicle. […]
as §1, with “Serum samples were stored at −80° C. until hormonal analyses were performed.” left out

brain serotonin = experiment: Brain serotonin content in ovariectomized mice; details: OVX mice
Procedure: as §3
as §1, with “Serum samples were stored at −80° C. until hormonal analyses were performed.” left out

ovariectomized mice [4] = experiment: Gastrointestinal homeostasis and blood coagulation in ovariectomized mice; details: OVX mice, 6 weeks
naive mice = experiment: Histomorphometric analysis of vertebrae of naive mice; details: naive mice (FIG. 20A: 250 mg/kg/day orally, 6 weeks)
Procedure: FIG. 20. (A) Histomorphometric analysis of vertebrae of 12 week-old mice that received vehicle or LP-533,401 (250 mg/kg/day, orally) for 6 weeks. (B-E) Gastrointestinal transit rate (B), colon motility (C), efficiency of gastric emptying (D) and blood coagulation rate (E) in 18 week-old ovariectomized (OVX) mice that received orally vehicle or indicated doses of LP-533,401 for 6 weeks.
as §2, with “For the analysis of parameters of osteoblasts and osteoclasts, 4 μm sections were stained with toluidine blue and tartrate-resistant acid phosphatase (TRAP), respectively (2). Histomorphometric analyses were performed using the Osteomeasure Analysis System (Osteometrics, Atlanta, Ga.).” left out

[5] = OVX mice, 250 mg/kg/day for 4 weeks from week 2 post-ovariectomy
[6] = OVX mice, day 1 to 28 post-ovariectomy
[7] = 250 mg/kg/day for 4 weeks from week 2 post-ovariectomy

Compound: Nc1nc(OC(c2ccc(-c3cccc(F)c3)cc2)C(F)(F)F)cc(-c2ccc(C[C@H](N)C(=O)O)cc2)n1 (stereo partly drawn) [LP-533401, (2S)-2-amino-3-(4-(2-amino-6-(2,2,2-trifluoro-1-(3′-fluorobiphenyl-4-yl)ethoxy)pyrimidin-4-yl)phenyl)propanoic acid]
- Peripheral serotonin (ng/ml) (mean ± SEM) (peripheral serotonin): 88.56 ± 12.93 ng/mL
- serum serotonin levels, dose response (serum serotonin [1]; WT mice fed with increasing amounts): dose-dependent decrease
- decrease in serum serotonin levels (serum serotonin [1]; WT mice, 250 mg/kg LP-533,401): 70 % of control values
- bone mass versus sham-operated mice (ovariectomized mice [2]; OVX mice, 25 mg/kg/day for 6 weeks from week 6 post-ovariectomy): similar
- bone mass (ovariectomized mice [2]; [5]): normalized
- bone resorption parameters (ovariectomized mice [2]; [5]): increased
- bone mass versus sham-operated mice (ovariectomized mice [2]; OVX mice, 100 or 250 mg/kg/day for 6 weeks from week 6 post-ovariectomy): significantly higher
- bone mass versus vehicle-treated ovariectomized mice (ovariectomized mice [2]; OVX mice, 250, 100 or 10 mg/kg once daily, day 1 to 28 post-ovariectomy): higher
- Cyclin D1 expression in the bones (ovariectomized mice [2]; [6]): increase
- bone formation rate (ovariectomized mice [2]; [6]): major increase
- osteoblast numbers (ovariectomized mice [2]; [6]): major increase
- osteocalcin serum levels (ovariectomized mice [2]; [6]): major increase
- decrease of serum serotonin levels (serum serotonin [3]; [7]): 80%
- serum serotonin levels (serum serotonin [3]; day 1 to 28 post-ovariectomy): decreased
- brain serotonin content (brain serotonin; [7]): unaffected
- brain serotonin content (brain serotonin; day 1 to 28 post-ovariectomy): unaffected
- coagulation rates versus vehicle (ovariectomized mice [4]): similar
- colonic mobility (ovariectomized mice [4]; up to 250 mg/kg/day): None of these parameters were affected
- gastric emptying (ovariectomized mice [4]; up to 250 mg/kg/day): None of these parameters were affected
- total gastrointestinal transit (ovariectomized mice [4]; up to 250 mg/kg/day): None of these parameters were affected
- increase in bone mass (naive mice): also observed in naive mice

— patent US8614222B2, “Methods of preventing and treating low bone mass diseases” (The Trustees of Columbia University in the City of New York, priority 2008, dated 2013)
